In test [1] the target is T1, LbHsp90 (Leishmania braziliensis, UniProt A4HL70). In words: ATPase activity inhibition assay (EnzChek Pi quantification). It counts as biochemical. The protocol:
(§1) The ATPase activity of LbHsp90 and hHsp90β was evaluated spectrophotometrically through inorganic phosphate (Pi) quantification following ATP hydrolysis, by the EnzChek™ assay kit (Invitrogen®) as previous described[31]^,[34]. Briefly, a 2 µM solution of LbHsp90 and hHsp90β enzymes was prepared in 150 mM NaCl, 5 mM MgCl2 and 20 mM Tris-HCl, pH 7.5, and incubated with ATP (concentration range 0–5 mM) for 60 min at 37 °C. Then, the chromogenic substrate 2-amino-6-mercapto 7-methyl purine riboside (MESG) and the purine nucleoside phosphorylase (PNP) were added and the resulting reaction mixture was incubated for 30 min at 37 °C. The assays were performed in a 96-well plate and kinetic parameters determined by Michaelis–Menten fitting using GraphPad Prism 6 software.
The inhibitory activity against LbHsp90 and hHsp90β of compounds showing interaction in DSF assays (namely Glb08, Glb15, Gl23, Glb25 and Glb27) was determined using spectrophotometric ATPase activity assays as described above. Initial screenings were performed using 50 μM compound concentration in a reaction mixture consisting of 2 μM enzyme and 2.5 mM ATP. After 1 h incubation at 37 °C, MESG and PNP were added. The amount of Pi was estimated after 30 min incubation at 37 °C. GA was used as reference compound, reporting 100% ATPase activity inhibition (at 50 μM). […] A compound concentration ranging from 1 to 75 μM was included in the reaction mixture and Pi quantification performed as previously described (measurements were performed in triplicate). IC50 values were determined by non-linear regression data fitting (using GraphPad Prism 6 software).

The target of test [2] is T2, hHsp90β (Homo sapiens, UniProt P08238).
T2 construct: made in house; host or cells: Escherichia coli BL21(DE3)
T2 sequence (P08238 whole entry): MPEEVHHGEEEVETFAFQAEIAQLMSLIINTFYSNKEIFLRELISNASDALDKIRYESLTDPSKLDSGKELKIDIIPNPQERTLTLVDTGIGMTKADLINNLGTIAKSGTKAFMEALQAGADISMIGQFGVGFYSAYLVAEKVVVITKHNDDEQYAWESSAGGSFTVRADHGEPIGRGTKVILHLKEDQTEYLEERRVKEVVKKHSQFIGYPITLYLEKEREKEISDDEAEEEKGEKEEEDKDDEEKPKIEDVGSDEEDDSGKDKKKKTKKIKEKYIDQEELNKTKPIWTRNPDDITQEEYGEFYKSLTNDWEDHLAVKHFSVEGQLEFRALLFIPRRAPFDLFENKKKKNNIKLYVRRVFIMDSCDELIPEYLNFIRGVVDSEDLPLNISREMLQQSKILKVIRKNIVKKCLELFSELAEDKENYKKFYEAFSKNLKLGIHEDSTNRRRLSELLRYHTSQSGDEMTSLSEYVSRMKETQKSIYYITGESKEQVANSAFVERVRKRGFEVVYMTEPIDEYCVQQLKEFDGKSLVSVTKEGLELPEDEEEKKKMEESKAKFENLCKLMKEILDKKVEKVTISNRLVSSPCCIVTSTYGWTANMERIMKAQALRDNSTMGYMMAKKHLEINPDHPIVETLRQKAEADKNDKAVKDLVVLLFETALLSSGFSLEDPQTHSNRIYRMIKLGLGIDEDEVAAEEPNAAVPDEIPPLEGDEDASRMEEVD
Described as above. The class given is biochemical. Particulars: 50 μM compound, 2 μM enzyme, 2.5 mM ATP. The protocol: as §1
Initial screenings were performed using 50 μM compound concentration in a reaction mixture consisting of 2 μM enzyme and 2.5 mM ATP. After 1 h incubation at 37 °C, MESG and PNP were added. The amount of Pi was estimated after 30 min incubation at 37 °C. […] A compound concentration ranging from 1 to 75 μM was included in the reaction mixture and Pi quantification performed as previously described (measurements were performed in triplicate). IC50 values were determined by non-linear regression data fitting (using GraphPad Prism 6 software).

Test [3] concerns promastigote form of L. braziliensis. In words: Cell viability assay (MTT/PMS), single concentration. As to conditions: L. braziliensis promastigotes, 200 μM/well; for Cell viability: 72 h, MTT/PMS, Yes = leishmanicidal activity; for reduced cell viability: after 72 h. It counts as cell-based. The protocol:
The leishmanicidal activity of the compounds was tested in vitro against the promastigote form of L. braziliensis applying 200 μM/well, (with a total of 0.5% DMSO) into 90 μL of culture. The concentration of L. braziliensis (MHOM/BR/1973/M2269) was adjusted to 10^7 cells/mL. Amphotericin (100 μM/well) was used as positive control, and 0.5% DMSO as negative control.
The plates were incubated at room temperature (RT) for 72 h. After this period, the viability of the promastigotes was verified via MTT (3–(4, 5-Dimethylthiazol-2-yl)-2, 5-Diphenyltetrazolium Bromide) colorimetric assay. MTT/PMS 11.1 μL/well solution (MTT = 5 mg/mL; Phenazine methosulfate-PMS = 0.22 mg/mL) was added, and the plate was incubated at RT for 4 h, at 150 RPM, protected from light. Formazan crystals were then solubilised by adding 100 μL/well of a solubilisation solution containing 7% SDS, 10 mM HCl and 30% DMSO. The mixture was incubated at RT for 90 min at 150 RPM protected from light. Wells containing the medium and the compounds or DMSO without MTT were used as blank controls. The absorbance was quantified in a plate reader (Biotek Synergy HT) at 570 nm.
The cell viability percentages were calculated by the following equation: (1) Cell viability %= AT−AB/AU−AB ×100 where AT was an averaged absorbance from treated samples, AB blank absorbance and AU was an averaged absorbance from negative control.

Another test concerns L. amazonensis. Also on record: method as in PMID 31611575. As to conditions: determined against L. amazonensis ref 36; read-out: IC50 (L. braziliensis column); cited from earlier work.
In test [4] the target is T1, LbHsp90. Set-up: method as in PMID 22910377. Particulars: measured by Tryptophan fluorescence quenching ref 31; read-out: KDapp LbHsp90; cited from earlier work.
The target of test [5] is LbHsp90N. Set-up: method as in PMID 22910377. Particulars: measured by Tryptophan fluorescence quenching ref 31; read-out: KDapp LbHsp90N; cited from earlier work.
The subject of test [6] is LbHsp90 and LbHsp90N recombinant proteins. The test is described as follows: Differential scanning fluorimetry (thermal shift assay). The class given is binding, L. braziliensis. As to conditions: DSF; for Thermal shift: inclusion criterion Tm variation greater or equal to ± 2 °C in LbHsp90 or LbHsp90N, Yes/No. As for the experimental part: The interaction of Hsp90 proteins with different compounds was monitored through the melting temperature (Tm) of each protein in the presence of a fixed concentration of the target compound by differential scanning fluorimetry (DSF) also referred as thermal shift assay. A final concentration of 10 µM of dimeric LbHsp90 and 20 µM of monomeric LbHsp90N in 40 mM Hepes buffer (pH 7.5) containing 100 mM KCl were used. The DMSO concentration in each sample was fixed at 2.5% (v/v). Prior to the readings, the samples were incubated for 30 min on ice. The fluorophore Sypro Orange (Life Technologies) was used as fluorescent probe. The experiments were performed at a thermocycler CFX96 Touch Real Time PCR Detection System (BioRad) and the data were analysed using the CFX Manager software (BioRad). As positive controls, 100 µM of GA and Radicicol (RDC) were used.
(In general: DSF heats the sample and reads unfolding from a dye or from intrinsic fluorescence.)

Test [7] has as its target LbHsp90N. In words: Tryptophan fluorescence quenching interaction assay. The class given is binding, L. braziliensis. As to conditions: N-terminal domain, read-out: KDapp LbHsp90N. As for the experimental part:
(§2) Two µM of protein in 40 mM Hepes buffer (pH 7.5), 100 mM KCl, was incubated for 30 min on ice with increasing concentrations of the compounds diluted in DMSO. […] The samples were excited at 280 nm and the emission was collected in the 300–400 nm range, in a 1.0 × 0.2 cm optical path cuvette, on an F-4500 Fluorescence Spectrophotometer (Hitachi). The fluorescence quenching was analysed at the maximum emission wavelength in the absence of ligand. The determination of the apparent dissociation constant (KDapp) was performed by fitting the fluorescence values obtained for each compound concentration according to a dose-response model through the Equation (3): (3) y = Fmin + (Fmax−Fmin)/(1+10^(logKD− [ligand])) where Fmin and Fmax are the minimum and maximum fluorescence intensity and [ligand] is the compound concentration used in the assay, according to the GraphPad Prism 5 software. The fluorescence intensities were corrected by inner filter effects as previously described.

In test [8] the test system is Balb-c 3T3 clone A31 mouse fibroblasts. In words: Cytotoxic assay (MTT). The class given is cell-based. Particulars: Balb-c 3T3 mouse fibroblasts, 72 h, 37 °C. As for the experimental part:
Compounds cytotoxicity was evaluated in 100 μL of Balb-c 3T3 cone A31 mouse fibroblasts (10^5 cells/mL) into a 96-well plate, incubated for 24 h at 37 °C to become adhered. After this period, the medium was washed and 100 μL of each compound was added to the culture medium (concentration ranging from 1 to 200 μM/well, with a total of 0.5% DMSO) in quadruplicate. Rapamycin was used as a positive control, and 0.5% DMSO was used as negative control. The plates were incubated for 72 h at 37 °C. After this, the viability of Balb-c 3T3 cells was evaluated by MTT colorimetric assay, as described previously.

Test [9] concerns promastigote forms of L. braziliensis. The test is described as follows: In vitro IC50 determination (leishmanicidal activity, MTT/PMS). Particulars: promastigotes, 72 h, RT. It counts as cell-based. As for the experimental part: Amphotericin 100 μM/well and 0.5% DMSO were used as positive and negative control, respectively. The plates were incubated at RT for 72 h. After this, the viability of the promastigotes was verified by MTT/PMS colorimetric assay, as described above. In vitro leishmanicidal activity, expressed as IC50, was determined using GraphPad Prism 5 software according to the following equation: (2) y= Amin + Amax−Amin/1+10^logIC50 −x*Hillslope where Amin and Amax are, respectively, the minimum and maximum activities obtained, x is the ligand concentration and Hill Slope is the parameter that describes the steepness of the curve.
The selectivity index parameter was obtained by the ratio of compound IC50 against mammalian cells and compound IC50 against promastigote cells.

The target of test [10] is T1, LbHsp90. In words: Tryptophan fluorescence quenching interaction assay. Particulars: full-length, tryptophan fluorescence quenching; read-out: KDapp LbHsp90. The class given is binding. As for the experimental part: as §2
For test [11], the target named is T2, hHsp90β. Described as above. It counts as binding. As to conditions: full-length, tryptophan fluorescence quenching; read-out: KDapp hHsp90β. The protocol: as §2
The target of a further test is T3, hHsp90βN (Homo sapiens, UniProt P08238).
T3 construct: N-terminal domain construct (Hsp90βN – residues 1–223); His-tag (cleaved yes); made in house; host or cells: Escherichia coli BL21(DE3)
T3 sequence (P08238 1-223): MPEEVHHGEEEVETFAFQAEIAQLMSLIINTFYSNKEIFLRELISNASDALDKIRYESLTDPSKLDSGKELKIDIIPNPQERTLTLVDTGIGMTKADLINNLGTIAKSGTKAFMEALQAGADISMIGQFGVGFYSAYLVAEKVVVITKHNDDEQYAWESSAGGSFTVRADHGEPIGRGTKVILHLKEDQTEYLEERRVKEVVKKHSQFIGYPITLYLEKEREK
Described as above. As to conditions: N-terminal domain, read-out: KDapp hHsp90βN. The class given is binding. As for the experimental part:
as §2

Setting [12] is: compound 1 to 75 μM, triplicate, read-out: IC50 LbHsp90 ATPase activity inhibition.

Where two headings read alike, the source gives them in different places. Some results are limits rather than exact numbers.

T1 sequence (A4HL70 entry or part of it): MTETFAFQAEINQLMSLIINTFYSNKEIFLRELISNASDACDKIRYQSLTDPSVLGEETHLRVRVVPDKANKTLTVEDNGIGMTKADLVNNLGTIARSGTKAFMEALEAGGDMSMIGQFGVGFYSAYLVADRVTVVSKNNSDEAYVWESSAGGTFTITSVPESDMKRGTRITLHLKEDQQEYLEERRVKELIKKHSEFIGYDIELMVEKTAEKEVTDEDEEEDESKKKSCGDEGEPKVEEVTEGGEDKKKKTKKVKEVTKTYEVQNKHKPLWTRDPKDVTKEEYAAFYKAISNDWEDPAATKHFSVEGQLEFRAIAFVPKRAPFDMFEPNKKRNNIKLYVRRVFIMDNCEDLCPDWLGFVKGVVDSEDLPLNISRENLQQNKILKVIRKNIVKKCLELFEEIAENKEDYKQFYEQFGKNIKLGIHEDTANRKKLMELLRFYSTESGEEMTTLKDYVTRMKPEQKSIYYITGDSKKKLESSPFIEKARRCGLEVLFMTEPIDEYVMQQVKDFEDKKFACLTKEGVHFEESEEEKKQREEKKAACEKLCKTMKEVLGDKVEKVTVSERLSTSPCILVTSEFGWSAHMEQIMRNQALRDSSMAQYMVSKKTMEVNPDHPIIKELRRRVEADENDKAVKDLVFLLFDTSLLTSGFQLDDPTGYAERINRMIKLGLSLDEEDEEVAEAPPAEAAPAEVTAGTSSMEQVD

For orientation: IC50 means the midpoint of a concentration-inhibition curve. A word on the inhibition: it is the change of the read-out against control, counted positive when it falls. As a reminder, the ΔTm is the change in melting temperature against a reference sample. Regarding `COC1=C2C[C@@H](C)C[C@H](OC)[C@H](O)[C@@H](C)/C=C(\C)[C@H](OC(N)=O)[C@@H](OC)/C=C\C=C(/C)C(=O)NC(=CC1=O)C2=O` [GA, geldanamycin, reference compound], the IC50 is 9 µM on LbHsp90 [1] and 0.19 µM in the test on L. amazonensis. For the same compound, the inhibition at 50 µM on LbHsp90 [1] (read-out: percentage inhibition of LbHsp90 ATPase activity) is 100%. Moreover, the “percentage inhibition of hHsp90β ATPase activity” value (from here on “percentage inhibition”) at hHsp90β [2] was “fully inhibits enzyme activity”. Also, in [3], the Cell viability result was “Yes”. Moreover, the results for the Kd on LbHsp90 [4] and at LbHsp90N [5] were 7.6 ± 0.2 µM and 1.8 ± 0.3 µM, respectively. Also, the ΔTm in test [6] (100 µM positive controls, protein stabilisation) is above 2.0 °C.
As to `N=C(N)Nc1nc(-c2ccccc2)c2ccccc2n1` [Glb08], the IC50 on LbHsp90 [1] (setting [12]) was 30 ± 1 µM; in test [8] it was 75 ± 3 µM; in test [9] it was 43 ± 2 µM. Besides, the “percentage inhibition” value at hHsp90β [2] is “lower than 60%”. Also, the Cell viability result in test [3] is recorded as “Yes”. In test [3], the reduced cell viability entry is “more than 60%”. Moreover, the Kd is 17 ± 6 µM at LbHsp90N [7], 13 ± 4 µM on LbHsp90 [10], 20 ± 5 µM on hHsp90β [11] and 29 ± 3 µM at hHsp90βN. The Thermal shift entry in test [6] is “positive outcomes and Yes”.
Regarding `N=C(N)NN=Cc1cnn(Cc2ccccc2)c1` [Glb15], the IC50 was 36 ± 1 µM on LbHsp90 [1] (setting [12]), above 200 µM in test [8] and 71 ± 2 µM in test [9]. In addition, the “percentage inhibition” value on hHsp90β [2] is reported as “lower than 60%”. For the same compound, the Cell viability entry in test [3] is on record as “Yes”. Besides, the reduced cell viability entry in test [3] is “more than 60%”. Also, the Kd on LbHsp90N [7] was found to be 13 ± 3 µM; at LbHsp90 [10], 14 ± 4 µM; on hHsp90β [11], 14 ± 6 µM; on hHsp90βN, 12 ± 3 µM. In test [6], the Thermal shift result is listed as “No”.
`N=C(N)SCc1nc2ccccc2c(=O)n1-c1ccccc1` [Glb23]: the IC50 on LbHsp90 [1] (setting [12]) was 35 ± 1 µM; in [8], 55 ± 1 µM; in test [9], above 100 µM. The “percentage inhibition” value at hHsp90β [2] is on record as “lower than 60%”. In test [3], the Cell viability entry is listed as “Yes”. In addition, in test [3], the reduced cell viability entry is “more than 60%”. For the same compound, the Thermal shift entry in test [6] was “No”. Besides, the Kd is 26 ± 7 µM on LbHsp90 [10], 21 ± 9 µM at hHsp90β [11] and 20 ± 30 µM at hHsp90βN.
For `Cc1cc(CSC(=N)N)c2oc(-c3ccccc3)cc(=O)c2c1` [Glb25], the “percentage inhibition” value at hHsp90β [2] is given as “lower than 60%”. Moreover, the Cell viability result in [3] is “Yes”. In [3], the reduced cell viability entry is “more than 60%”. Besides, the Kd at LbHsp90N [7] worked out at 12 ± 2 µM; on LbHsp90 [10] it was 7 ± 3 µM; on hHsp90β [11], 15 ± 9 µM; at hHsp90βN it was 14 ± 3 µM. Besides, the IC50 in test [8] was 11 ± 1 µM; in test [9] it was above 200 µM. Also, in test [6], the Thermal shift entry is “positive outcomes and Yes”.

The values above are taken from PMC7034072, “Discovery of small molecule inhibitors of Leishmania braziliensis Hsp90 chaperone” (Journal of Enzyme Inhibition and Medicinal Chemistry, 2020).
